Source: patent US8912220B2 (priority 2009, dated 2014)

molecular target: human 5-HT2C(VSV) (Homo sapiens, UniProt P28335, I156V/I160V/N158S); test: cell-based
Sequence (P28335 33-458 I156V/N158S/I160V limits assumed): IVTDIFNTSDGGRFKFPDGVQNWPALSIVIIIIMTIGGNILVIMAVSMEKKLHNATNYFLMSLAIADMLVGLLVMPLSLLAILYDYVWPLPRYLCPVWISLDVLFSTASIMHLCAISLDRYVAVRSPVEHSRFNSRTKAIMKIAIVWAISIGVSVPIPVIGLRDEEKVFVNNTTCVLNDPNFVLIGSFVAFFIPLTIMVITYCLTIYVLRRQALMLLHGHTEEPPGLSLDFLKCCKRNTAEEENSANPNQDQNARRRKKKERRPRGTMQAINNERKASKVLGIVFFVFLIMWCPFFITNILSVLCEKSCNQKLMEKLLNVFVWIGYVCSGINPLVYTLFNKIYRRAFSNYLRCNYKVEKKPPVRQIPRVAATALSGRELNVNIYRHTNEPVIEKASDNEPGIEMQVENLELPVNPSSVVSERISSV

CNCCc1cn(C)c2ccc(F)c(OCCc3ccc(F)cc3)c12 [33-28, 2-(5-fluoro-4-(4-fluorophenethoxy)-1-methyl-1H-indol-3-yl)-N-methylethanamine] and CNCCc1cn(C)c2ccc(F)c(OCc3cc(F)ccc3C)c12 [33-33, 2-(5-fluoro-4-(5-fluoro-2-methylbenzyloxy)-1-methyl-1H-indol-3-yl)-N-methylethanamine] fall in the same range of EC50: 1 to 500 nM for the first, 1 to 500 nM for the second.

CCOc1c(F)ccc2c1c(CCNCc1ccccc1Cl)cn2C [30-17, N-(2-chlorobenzyl)-2-(4-ethoxy-5-fluoro-1-methyl-1H-indol-3-yl)ethanamine] and CCOc1c(F)ccc2c1c(CCNCc1cccs1)cn2C [30-28, 2-(4-ethoxy-5-fluoro-1-methyl-1H-indol-3-yl)-N-(thiophen-2-ylmethyl)ethanamine] fall in the same range of EC50: 1 to 500 nM for the first, 1 to 500 nM for the second.

First: COc1c(F)ccc2c1c(CCN1CCNCC1)cn2C [17-10, 5-fluoro-4-methoxy-1-methyl-3-(2-(piperazin-1-yl)ethyl)-1H-indole]
Second: COc1c(F)ccc2c1c(CCN1CCN(c3cccc(Cl)c3)CC1)cn2C [17-15, 3-(2-(4-(3-chlorophenyl)piperazin-1-yl)ethyl)-5-fluoro-4-methoxy-1-methyl-1H-indole]
The EC50 of the first is higher: 500 to 10000 nM for the first, 1 to 500 nM for the second. The second is the more potent here.

CCn1cc(CCNCCc2ccccc2)c2c(OCc3ccccc3)cc(F)cc21 [26-9, 2-(4-(benzyloxy)-1-ethyl-6-fluoro-1H-indol-3-yl)-N-phenethylethanamine] and CCn1cc(CCNCc2cccc(C(F)(F)F)c2)c2c(OCc3ccccc3)cc(F)cc21 [31-8, 2-(4-(benzyloxy)-1-ethyl-6-fluoro-1H-indol-3-yl)-N-(3-(trifluoromethyl)benzyl)ethanamine] fall in the same range of EC50: 500 to 10000 nM for the first, 500 to 10000 nM for the second.

COc1ccc(-c2cccs2)c2c1c(CCN(C)C)cn2C [6-7, 2-(4-methoxy-1-methyl-7-(thiophen-2-yl)-1H-indol-3-yl)-N,N-dimethylethanamine] and COc1ccc(-c2ccsc2)c2c1c(CCN(C)C)cn2C [6-13, 2-(4-methoxy-1-methyl-7-(thiophen-3-yl)-1H-indol-3-yl)-N,N-dimethylethanamine] fall in the same range of EC50: 500 to 10000 nM for the first, 500 to 10000 nM for the second.

First: CCn1cc(CCNC(c2ccccc2)c2ccccc2)c2c(O)cc(F)cc21 [31-10, 3-(2-(benzhydrylamino)ethyl)-1-ethyl-6-fluoro-1H-indol-4-ol]
Second: CCn1cc(CCN2Cc3ccccc3C2)c2c(OCc3ccccc3)cc(F)cc21 [31-3, 4-(benzyloxy)-1-ethyl-6-fluoro-3-(2-(isoindolin-2-yl)ethyl)-1H-indole]
The EC50 of the first is lower: 1 to 500 nM for the first, 500 to 10000 nM for the second.

First: CCn1cc(CCN2CCC(F)(F)C2)c2c(O)cc(F)cc21 [11-14, 3-(2-(3,3-difluoropyrrolidin-1-yl)ethyl)-1-ethyl-6-fluoro-1H-indol-4-ol]
Second: CCn1cc(CCN2CCCC2)c2c(O)cc(F)cc21 [11-6, 1-ethyl-6-fluoro-3-(2-(pyrrolidin-1-yl)ethyl)-1H-indol-4-ol]
The EC50 of the first is higher: 500 to 10000 nM for the first, 1 to 500 nM for the second. The second is the more potent here.

CN(C)CCc1cn(Cc2ccccc2)c2c(F)ccc(O)c12 [7-3, 1-benzyl-3-(2-(dimethylamino)ethyl)-7-fluoro-1H-indol-4-ol] and CCn1cc(CCNc2ccccc2)c2c(O)ccc(F)c21 [11-7, 1-ethyl-7-fluoro-3-(2-(phenylamino)ethyl)-1H-indol-4-ol] fall in the same range of EC50: 500 to 10000 nM for the first, 500 to 10000 nM for the second.

CNCCc1cn(C)c2ccc(F)c(OC(C)c3ccccc3)c12 (stereo not drawn) [33-32, 2-(5-fluoro-1-methyl-4-(1-phenylethoxy)-1H-indol-3-yl)-N-methylethanamine] and COc1c(F)ccc2c1c(CCNC(CO)c1ccccc1)cn2C (stereo not drawn) [34-9, 2-(2-(5-fluoro-4-methoxy-1-methyl-1H-indol-3-yl)ethylamino)-2-phenylethanol] fall in the same range of EC50: 1 to 500 nM for the first, 1 to 500 nM for the second.

Cc1cccc(CNCCc2cn(C)c3ccc(F)c(O)c23)n1 [17-20, 5-fluoro-1-methyl-3-(2-(((6-methylpyridin-2-yl)methyl)amino)ethyl)-1H-indol-4-ol] and CCCn1cc(CCNCc2cccc(C)n2)c2c(O)c(F)ccc21 [17-19, 5-fluoro-3-(2-(((6-methylpyridin-2-yl)methyl)amino)ethyl)-1-propyl-1H-indol-4-ol] cannot be ordered by EC50: < 10000 nM for the first, < 10000 nM for the second.

First: CCn1cc(C2CCCN(C)C2)c2c(O)cc(F)cc21 (stereo not drawn) [38-6, 1-ethyl-6-fluoro-3-(1-methylpiperidin-3-yl)-1H-indol-4-ol]
Second: CCn1cc(CCN2CCOCC2)c2c(O)cc(F)cc21 [11-5, 1-ethyl-6-fluoro-3-(2-morpholinoethyl)-1H-indol-4-ol]
The EC50 of the first is higher: 500 to 10000 nM for the first, 1 to 500 nM for the second. The second is the more potent here.

CNCCc1cn(C)c2ccc(F)c(OCc3cccc(Cl)c3)c12 [33-8, 2-(4-(3-chlorobenzyloxy)-5-fluoro-1-methyl-1H-indol-3-yl)-N-methylethanamine] and CNCCc1cn(C)c2ccc(F)c(OCc3cccc(C(F)(F)F)c3)c12 [33-21, 2-(5-fluoro-1-methyl-4-(3-(trifluoromethyl)benzyloxy)-1H-indol-3-yl)-N-methylethanamine] fall in the same range of EC50: 1 to 500 nM for the first, 1 to 500 nM for the second.

CCOc1c(F)ccc2c1c(CCNC1CCc3ccccc31)cn2C (stereo not drawn) [30-19, N-(2-(4-ethoxy-5-fluoro-1-methyl-1H-indol-3-yl)ethyl)-2,3-dihydro-1H-inden-1-amine] and CNCCc1cn(C)c2ccc(F)c(OCCOc3ccccc3)c12 [33-14, 2-(5-fluoro-1-methyl-4-(2-phenoxyethoxy)-1H-indol-3-yl)-N-methylethanamine] fall in the same range of EC50: 1 to 500 nM for the first, 1 to 500 nM for the second.

CNCCc1cn(C)c2cc(F)cc(OCc3ccc(Cl)cc3)c12 [33-45, 2-(4-(4-chlorobenzyloxy)-6-fluoro-1-methyl-1H-indol-3-yl)-N-methylethanamine] and CNCCc1cn(C)c2ccc(F)c(OCc3ccc(Cl)cc3Cl)c12 [33-48, 2-(4-(2,4-dichlorobenzyloxy)-5-fluoro-1-methyl-1H-indol-3-yl)-N-methylethanamine] cannot be ordered by EC50: 1 to 500 nM for the first, < 10000 nM for the second.

Compared with CCn1cc(CCN2C[C@@H](C)O[C@@H](C)C2)c2c(O)cc(F)cc21 [11-13], CCn1cc(CCN(C)C)c2c(OCc3ccc(F)cc3)cc(F)cc21 [1-14b, 2-(1-ethyl-6-fluoro-4-(4-fluorobenzyloxy)-1H-indol-3-yl)-N,N-dimethylethanamine] is lower in EC50: 500 to 10000 nM for the first, 1 to 500 nM for the second.

Compared with COc1ccc(-c2ccoc2)c2c1c(CCN(C)C)cn2C [6-9, 2-(7-(furan-3-yl)-4-methoxy-1-methyl-1H-indol-3-yl)-N,N-dimethylethanamine], CCn1cc(CCNCCc2ccccc2)c2c(OC)ccc(F)c21 [20-7, 2-(1-ethyl-7-fluoro-4-methoxy-1H-indol-3-yl)-N-phenethylethanamine] is lower in EC50: 500 to 10000 nM for the first, 1 to 500 nM for the second. The second is the more potent here.

CCOc1c(F)ccc2c1c(CCNCc1cccc(C(F)(F)F)c1)cn2C [30-22, 2-(4-ethoxy-5-fluoro-1-methyl-1H-indol-3-yl)-N-(3-(trifluoromethyl)benzyl)ethanamine] and CNCCc1cn(C)c2ccc(F)c(OCc3ccccc3-c3ccccc3)c12 [33-30, 2-(4-(biphenyl-2-ylmethoxy)-5-fluoro-1-methyl-1H-indol-3-yl)-N-methylethanamine] fall in the same range of EC50: 1 to 500 nM for the first, 1 to 500 nM for the second.

NCCc1cn(CC2COc3ccccc3O2)c2ccc(F)c(O)c12 (stereo not drawn) [19-5, 3-(2-aminoethyl)-1-((2,3-dihydrobenzo[b][1,4]dioxin-2-yl)methyl)-5-fluoro-1H-indol-4-ol] and CCCn1cc(CCNC)c2c(OCc3cccc4ccccc34)c(F)ccc21 [33-39, 2-(5-fluoro-4-(naphthalen-1-ylmethoxy)-1-propyl-1H-indol-3-yl)-N-methylethanamine] fall in the same range of EC50: 1 to 500 nM for the first, 1 to 500 nM for the second.
